Data reported in US11370775B2, “Substituted benzimidazole derivatives as D-amino acid oxidase (DAAO) inhibitors” (NATIONAL TAIWAN UNIVERSITY, priority 2016, dated 2022).

Columns and labels:
Assay type in all cases: in vivo
[1] = tested on: MK-801-induced hyperlocomotion in C57BL/6 mice; assay: Open field, MK-801-induced hyperlocomotion
Excerpt: (§1) The NMDA-receptor antagonist MK-801-induced negative or cognitive deficits in C57BL/6 mice were in a well-established drug-induced schizophrenia mouse model and as a useful pharmacological animal model to identify if the RS-D7, its analog and its prodrug improve the symptoms through the NMDA receptor.
(§2) All wild-type (WT) mice used in this study were backcrossed onto a C57BL/6J background from the Laboratory Animal Center of National Taiwan University Hospital, and all behavioral examinations were conducted in WT mice. For acclimatizing to laboratory conditions, the mice were allowed free access to food and water and were housed in groups with a 12 hours light-dark cycle in a temperature and humidity controlled room of the Psychology Department, National Taiwan University. All animals within the age of 3 months were housed individually one week before experiment testing with food and water available ad libitum. In the beginning of the experiments, the mice were handled and weighted daily at least 1 week before the behavioral experiments. The entire animal procedures were performed according to protocols approved by the Animal Care and Use Committee established by the National Taiwan University.
(§3) MK-801 was dissolved in saline and administered at a volume of 0.01 ml/g body weight. RS-D7, Drug 12083 (analog of RS-D7) and was freshly dissolved in 1% CMC to the concentration of 2 mg/ml before usage. Prodrug 28095 was freshly dissolved in NMP:HP-beta-CD:H2O (5:25:70) to the concentration of 2 mg/ml before usage. All animals were given vehicle (saline) or MK-801 (0.2 mg/kg, i.p.) 25 minutes before the behavioral experiments. Both vehicle (1% CMC or NMP:HP-beta-CD:H2O) and experimental groups (RS-D7, Drug 12083 or Prodrug 28095) were treated after 5 minutes MK-801 administration with the appropriate dose via P.O. injections (at a volume of 0.01 ml/g body weight).
(§4) For investigating the treatment effect of RS-D7 for negative and cognitive symptoms, a series of three behavioral tests (run from the first to the third week), which included open field, sucrose preference test and prepulse inhibition were performed in sequence with a 1-week interval between tests.
To assess spontaneous locomotor activity, each subject was placed into the center of an open-field apparatus (25.40*25.40*40.64 cm^3, Coulbourn Instruments, Whitehall, Pa., USA) under dim lighting condition (60 lx). Motor activity parameters (including total travel distance and travel distance per 10 minutes) were monitored and recorded over a 60 minutes period by using Smart video tracking software (Panlab, Harvard apparatus, US). For comparing the treatment effects of different treatment groups, the percentage change of rescue effect on MK-801-induced hyperlocomotion was calculated using the following formula: %=(rescue effect of drug−MK-801 effect)×100%/MK-801 effect.

[2] = tested on: MK-801-induced anhedonia in C57BL/6 mice; assay: Sucrose preference test, MK-801-induced anhedonia
Excerpt: as §1, §2, §3, §4
To assess the anhedonia, one of the negative symptoms of schizophrenia, all mice underwent 4-day testing. In the beginning of the sucrose preference, all mice were deprived of water for 23 hours in all the experiment from one day before the first day. On the first day, each mouse was given free access to 2 identical bottles with water for 1 hour. Then, the 2 identical bottles were replaced that one filled with 1% (wt/vol) sucrose solution and the other with water on the second day. On the third and fourth day, each mouse was received MK-801 and RS-D7 treatment before the experiment, and also free accessed to bottles for 1 hour. After the experiment, the 2 bottles were weighted to measure the 1-hour consumption of sucrose solution and water. The sucrose preference percentage (SPP) was calculated using the following formula: % SPP=sucrose solution consumption (g)×100%/[water consumption (g)+sucrose solution consumption (g)].

[3] = tested on: MK-801-induced PPI deficit in C57BL/6 mice; assay: Prepulse inhibition, MK-801-induced PPI deficit; settings: MK-801 0.2 mg/kg i.p.
Excerpt: as §1, §2, §3, §4
To assess the sensorimotor gating function, each mouse was tested with the SR-LAB startle apparatus (San Diego Instruments, San Diego, Calif., USA). The background noise was 72 dB during testing. Each session was initiated with a 5 minutes acclimatization period followed by 64 trials, consisting of pulse-alone (P-alone) trials, prepulse pulse (pp+P) trials, and no stimulation (nostim) trials. A P-alone trial was a 120 dB white noise burst of 40 msec. In the pp+P trials, the 120 dB pulse was preceded (by 100 msec) by a 20 msec of white noise prepulse burst of 78 dB (PP6), 82 dB (PP10), or 90 dB (PP18). The nostim trials consisted of background noise only. The session began and ended with a block of six presentations of the P-alone trial. Between these two blocks, the rest of the 52 trials were performed pseudorandomly and separated by intertrial intervals of 15 sec on average (varying between 10 and 20 sec). PPI was calculated as a percentage of the startle response using the formula: % PPI=100× [(P-alone score)-(pp+P score)]/(pulse-alone score), where the pulse-alone score was the average of the pulse-alone values from the in-between block of 52 trials.

Structure (SMILES): COc1c(C)cnc(C[S+]([O-])c2nc3cc(OC(=O)CC(C)CC(C)(C)C)ccc3[nH]2)c1C (stereo not drawn) [compound 28095, 2-(((4-methoxy-3,5-dimethylpyridin-2-yl)methyl)sulfinyl)-1H-benzo[d]imidazol-5-yl 3,5,5-trimethylhexanoate]
- Effect on MK-801 induced hyperlocomotion (open field) ([1]; 100 mg/kg P.O., MK-801 0.2 mg/kg i.p., mice): alleviated MK-801 induced hyperlocomotion
- Effect on MK-801-induced hyperlocomotion (FIG. 1) ([1]; different dosages, compared to the MK-801 group): can rescue the MK-801-induced hyperlocomotion
- Effect on MK-801 induced anhedonia (sucrose preference) ([2]; 200 mg/kg P.O., MK-801 0.2 mg/kg i.p., mice): normalized MK-801 induced anhedonia
- Effect on anhedonia after acute MK-801 injection (FIG. 2) ([2]; different dosages): rescue the anhedonia after acute MK-801 injection
- Effect on MK-801 induced PPI deficit ([3]; 100 mg/kg P.O.): significantly alleviated MK-801 induced PPI deficit
- Effect on MK-801 induced PPI deficit ([3]; 200 mg/kg P.O.): significantly alleviated MK-801 induced PPI deficit
